Two compounds from ChEMBL document CHEMBL4392854, “Discovery, synthesis, biological evaluation and molecular docking study of (R)-5-methylmellein and its analogs as selective monoamine oxidase A inhibitors” (Bioorg Med Chem, 2019) can be followed below.

Data set [1] addresses T1, Amine oxidase [flavin-containing] A (Homo sapiens, UniProt P21397).
T1 sequence (P21397 whole entry): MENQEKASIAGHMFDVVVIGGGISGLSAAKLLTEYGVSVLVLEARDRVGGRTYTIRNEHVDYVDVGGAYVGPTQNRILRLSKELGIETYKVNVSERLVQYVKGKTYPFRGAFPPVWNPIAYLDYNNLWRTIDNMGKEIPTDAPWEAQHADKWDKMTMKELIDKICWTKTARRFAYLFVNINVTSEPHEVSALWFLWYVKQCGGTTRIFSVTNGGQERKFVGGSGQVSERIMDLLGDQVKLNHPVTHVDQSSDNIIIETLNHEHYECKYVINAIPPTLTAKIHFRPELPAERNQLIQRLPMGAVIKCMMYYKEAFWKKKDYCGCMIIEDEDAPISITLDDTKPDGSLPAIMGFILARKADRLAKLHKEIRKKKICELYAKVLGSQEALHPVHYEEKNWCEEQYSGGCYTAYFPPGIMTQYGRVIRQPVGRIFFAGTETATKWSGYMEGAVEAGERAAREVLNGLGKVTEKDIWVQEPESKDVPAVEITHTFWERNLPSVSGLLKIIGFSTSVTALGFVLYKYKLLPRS
Description: Inhibition of human recombinant MAOA using kynuramine as substrate incubated for 10 mins by UPLC-ESI-MS/MS analysis.

Data set [2] has as its target T2, Amine oxidase [flavin-containing] B (Homo sapiens, UniProt P27338).
T2 sequence (P27338 whole entry): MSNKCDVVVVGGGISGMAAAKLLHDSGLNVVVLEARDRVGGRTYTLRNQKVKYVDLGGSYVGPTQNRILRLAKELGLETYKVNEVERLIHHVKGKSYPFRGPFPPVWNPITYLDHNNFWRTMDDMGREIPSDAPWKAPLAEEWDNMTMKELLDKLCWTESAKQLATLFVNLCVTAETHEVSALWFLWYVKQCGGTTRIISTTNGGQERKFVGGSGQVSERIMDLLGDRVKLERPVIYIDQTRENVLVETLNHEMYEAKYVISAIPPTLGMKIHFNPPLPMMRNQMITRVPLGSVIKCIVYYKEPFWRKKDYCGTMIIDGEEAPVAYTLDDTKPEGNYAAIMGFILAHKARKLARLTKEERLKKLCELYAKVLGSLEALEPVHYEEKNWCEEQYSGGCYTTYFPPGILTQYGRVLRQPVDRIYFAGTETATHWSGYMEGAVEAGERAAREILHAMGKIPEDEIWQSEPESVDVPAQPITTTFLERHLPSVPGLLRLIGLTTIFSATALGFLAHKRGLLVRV
Description: Inhibition of human recombinant MAOB using kynuramine as substrate incubated for 10 mins by UPLC-ESI-MS/MS analysis.

For the next data set, the species on record is Homo sapiens. Description: Selectivity index, ratio of IC50 for human recombinant MAOB to IC50 for human recombinant MAOA.
The target of data set [3] is T1, Amine oxidase [flavin-containing] A. In words: Tight binding competitive inhibition of human recombinant MAOA using 50 uM to 1000 uM kynuramine as substrate incubated for 10 mins by UPLC-ESI-MS/MS analysis based kinetic analysis.
The target is the same in data set [4]. In words: Inhibition of human recombinant MAOA using kynuramine as substrate incubated for 10 mins by UPLC-ESI-MS/MS analysis based Michaelis-Menten plot kinetic analysis.
Data set [5] has the same target. In words: Inhibition of human recombinant MAOA using kynuramine as substrate incubated for 10 mins by UPLC-ESI-MS/MS analysis based Eadie-Hofstee plot analysis.
For data set [6] the target is unchanged. Description: Tight-binding competitive inhibition of human recombinant MAOA using kynuramine as substrate incubated for 10 mins by UPLC-ESI-MS/MS analysis based Lineweaver-Burk plot kinetic analysis.
Another data set concerns the target T3, Monoamine oxidase (Mus musculus, UniProt Q8BW75+Q64133).
T3 sequence (Q8BW75 whole entry): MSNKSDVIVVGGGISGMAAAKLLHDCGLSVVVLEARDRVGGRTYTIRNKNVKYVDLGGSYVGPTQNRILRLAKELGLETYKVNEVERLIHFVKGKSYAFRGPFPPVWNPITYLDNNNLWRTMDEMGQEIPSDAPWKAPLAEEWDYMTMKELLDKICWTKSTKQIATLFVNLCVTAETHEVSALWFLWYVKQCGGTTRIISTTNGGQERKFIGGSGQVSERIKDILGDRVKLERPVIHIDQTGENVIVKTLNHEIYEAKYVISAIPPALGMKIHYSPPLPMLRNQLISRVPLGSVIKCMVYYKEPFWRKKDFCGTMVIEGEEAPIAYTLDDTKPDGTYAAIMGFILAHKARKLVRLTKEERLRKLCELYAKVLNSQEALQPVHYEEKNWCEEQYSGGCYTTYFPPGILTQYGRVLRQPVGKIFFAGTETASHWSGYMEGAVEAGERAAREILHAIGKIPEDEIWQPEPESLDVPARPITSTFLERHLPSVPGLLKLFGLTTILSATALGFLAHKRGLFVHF
T3 sequence (Q64133 whole entry): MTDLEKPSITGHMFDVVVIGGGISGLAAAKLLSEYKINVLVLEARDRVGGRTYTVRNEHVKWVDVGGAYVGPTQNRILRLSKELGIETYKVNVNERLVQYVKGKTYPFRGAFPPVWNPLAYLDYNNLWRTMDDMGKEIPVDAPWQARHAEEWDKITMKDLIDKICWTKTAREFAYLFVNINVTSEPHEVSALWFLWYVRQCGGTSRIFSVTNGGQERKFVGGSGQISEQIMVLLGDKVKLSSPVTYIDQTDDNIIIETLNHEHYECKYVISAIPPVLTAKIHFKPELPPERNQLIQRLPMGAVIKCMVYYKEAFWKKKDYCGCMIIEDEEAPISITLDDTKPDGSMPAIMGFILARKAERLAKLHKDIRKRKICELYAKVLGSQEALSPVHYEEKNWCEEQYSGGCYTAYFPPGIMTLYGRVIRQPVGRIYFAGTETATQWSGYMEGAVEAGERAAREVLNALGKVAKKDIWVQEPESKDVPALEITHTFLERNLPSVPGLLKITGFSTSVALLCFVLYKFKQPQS
Description: Inhibition of mouse brain monoamine oxidase.

Regarding `CC[C@@H]1Cc2c(C)cc(-c3cncnc3)c(O)c2C(=O)O1`, the figures for the IC50 in data set [1] and in data set [2] were 0.06 µM and above 50 µM, respectively. Moreover, the Ratio IC50 in the data set listed under Homo sapiens was above 830. Moreover, the “inhibition (INH)” value in data set [3], in data set [4], in data set [5] and in data set [6] was “Active” each time.

Consider `Cc1ccc(O)c2c1C[C@@H](C)OC2=O`, for which the IC50 came to 1.06 µM at Monoamine oxidase, 4.6 µM in data set [1] and 38.5 µM in data set [2]. In addition, in the data set filed under Homo sapiens, the Ratio IC50 was determined as 8.3.
